This is an account of results in patent US12378243B2, “Quinoline compounds as inhibitors of KRAS” (Incyte Corporation, priority 2021, dated 2025).

One data set addresses KRAS G12V mutant (Homo sapiens, UniProt P01116, G12V). The data set is described as follows: GDP-GTP exchange assay, KRAS G12V. It is filed as biochemical. The note with it: bodipy loaded KRAS G12V 2.5 nM; 3 hours incubation after adding GppNHp-SOS1 mixture; read-out: G12V_exchange.
Another data set has as its system Caco-2 cells. The data set is described as follows: Caco2 assay (permeability, A-B). It is filed as in vitro ADME. Conditions: Papp absorptive direction (A-B), test compound 50 μM, 120 minutes at 37° C. The method, boiled down: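 Caco-2 monolayers grown 22-25 days on Transwells, used only at TEER ≥300 Ω·cm^2. Compound at 50 μM in HBSS added apically, receiver HBSS with 4% BSA; 120 min at 37 °C. LCMS quantification; Papp from receiver flux slope, membrane area and initial donor amount.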
(Caco-2 cells form a polarised layer with tight junctions and transporters.)

The next data set deals with KRAS G12D (Homo sapiens, UniProt P01116, G12D). Kind of data set: GDP-GTP exchange assay, KRAS G12D. It is filed as biochemical. The note with it: bodipy-loaded KRAS G12D 2.5 nM, GppNHp 500 uM, SOS1 150 nM; 4 hours pre-incubation, 2 hours incubation; read-out: G12D_exchange. The method, boiled down: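 Nucleotide exchange started with 1 mM GppNHp and 300 nM SOS1, then 2 h at ambient temperature. IC50 from four-parameter logistic fit with variable Hill slope.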

pIC50: −log10 of the molar value. Some results are limits rather than exact numbers.

KRAS G12D, sequence (P01116 1-188 isoform P01116-2 G12D): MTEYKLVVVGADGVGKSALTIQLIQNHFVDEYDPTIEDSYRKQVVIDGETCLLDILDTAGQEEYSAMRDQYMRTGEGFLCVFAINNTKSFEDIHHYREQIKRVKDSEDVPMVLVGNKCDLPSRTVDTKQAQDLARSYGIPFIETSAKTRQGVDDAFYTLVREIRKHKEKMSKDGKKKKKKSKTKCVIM
KRAS G12V mutant, sequence (P01116 1-188 isoform P01116-2 G12V): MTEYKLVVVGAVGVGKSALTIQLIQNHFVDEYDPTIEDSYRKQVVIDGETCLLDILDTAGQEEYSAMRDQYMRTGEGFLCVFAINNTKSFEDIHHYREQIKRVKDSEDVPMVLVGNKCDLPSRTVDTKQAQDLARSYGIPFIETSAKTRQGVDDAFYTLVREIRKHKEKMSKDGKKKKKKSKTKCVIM

Turning to `C[C@H](Oc1nc2c(F)c(-c3cccc4ccc(F)c(F)c34)c(CCC#N)cc2c2c1cc(CCC(=O)N1CCC1)n2[C@H]1[C@H]2CN[C@@H]1C2)[C@@H]1CCCN1C` (single isomer, unassigned) [Example 20], the pIC50 at KRAS G12V mutant and on KRAS G12D was over 7.00 each time. In the data set on Caco-2 cells (Table 3), the Caco-2 result is on record as “+ (a Caco-2 value of 50.5)”.

For `Cc1cc2c(O[C@@H](C)[C@@H]3CCCN3C)nc3c(F)c(-c4cccc5cccc(C#N)c45)c(CCC#N)cc3c2n1[C@H]1[C@H]2CN[C@@H]1C2` (single isomer, unassigned) [Example 11], the pIC50 on KRAS G12V mutant and on KRAS G12D was over 7.00 throughout. Further, in the data set with Caco-2 cells (Table 3), the Caco-2 result is recorded as “+ (a Caco-2 value of 50.5)”.

As for `Cc1nc2c(F)c(-c3cccc(Cl)c3Cl)c(CCC#N)cc2c2c1cc([C@@H](C)NC(=O)C(F)F)n2[C@H]1[C@H]2CN[C@@H]1C2` [Example 56, N-((1R)-1-(1-((1R,4R,5S)-2-Azabicyclo[2.1.1]hexan-5-yl)-8-(2-cyanoethyl)-7-(2,3-dichlorophenyl)-6-fluoro-4-methyl-1H-pyrrolo[3,2-c]quinolin-2-yl)ethyl)-2,2-difluoroacetamide], the pIC50 at KRAS G12V mutant and on KRAS G12D was over 7.00 in each case. Moreover, the Caco-2 entry with Caco-2 cells (Table 4) is “+++ (a Caco-2 value of >1)”.

For `CCOc1nc2c(F)c(-c3cc(O)cc4ccccc34)c(CCC#N)cc2c2c1cc(C(C)N1CCOCC1=O)n2[C@H]1[C@H]2CN[C@@H]1C2` (stereo partly drawn) [Example 18, 3-(1-((1R,4R,5S)-2-azabicyclo[2.1.1]hexan-5-yl)-4-ethoxy-6-fluoro-7-(3-hydroxynaphthalen-1-yl)-2-(1-(3-oxomorpholino)ethyl)-1H-pyrrolo[3,2-c]quinolin-8-yl)propanenitrile], the pIC50 on KRAS G12V mutant and on KRAS G12D was over 7.00 throughout. For the same molecule, the Caco-2 result in the data set on Caco-2 cells (Table 3) is reported as “+ (a Caco-2 value of 50.5)”.

For `COC(=O)N1[C@@H](c2cc3c(-c4ccc(C(=O)N(C)C)nc4)nc4c(F)c(-c5cccc(Cl)c5Cl)c(CCC#N)cc4c3n2[C@H]2[C@H]3CN[C@@H]2C3)C[C@H]2C[C@H]21` [Example 48, Methyl (1R,3R,5R)-3-(1-((1R,4R,5S)-2-azabicyclo[2.1.1]hexan-5-yl)-8-(2-cyanoethyl)-7-(2,3-dichlorophenyl)-4-(6-(dimethylcarbamoyl)pyridin-3-yl)-6-fluoro-1H-pyrrolo[3,2-c]quinolin-2-yl)-2-azabicyclo[3.1.0]hexane-2-carboxylate], the pIC50 on KRAS G12V mutant and at KRAS G12D was over 7.00 each time. For the same molecule, the Caco-2 result with Caco-2 cells (Table 4) is recorded as “++ (a Caco-2 value of >0.5 but ≤1)”.

Consider `Cc1nc2c(F)c(-c3cccc(Cl)c3Cl)c(CCC#N)cc2c2c1cc([C@@H](C)Nc1cnn(C)c1)n2[C@H]1[C@H]2CN[C@@H]1C2` [Example 71, 3-(1-((1R,4R,5S)-2-azabicyclo[2.1.1]hexan-5-yl)-7-(2,3-dichlorophenyl)-6-fluoro-4-methyl-2-((R)-1-((1-methyl-1H-pyrazol-4-yl)amino)ethyl)-1H-pyrrolo[3,2-c]quinolin-8-yl)propanenitrile], for which the pIC50 at KRAS G12V mutant and on KRAS G12D was over 7.00 in each case. Also, the Caco-2 entry in the data set on Caco-2 cells (Table 4) is listed as “+++ (a Caco-2 value of >1)”.

For `Cc1cc2c(O[C@@H](C)[C@@H]3CCCN3C)nc3c(F)c(-c4cc(O)cc5ccc(F)cc45)c(CCC#N)cc3c2n1[C@H]1[C@H]2CN[C@@H]1C2` (single isomer, unassigned) [Example 22], the pIC50 at KRAS G12V mutant and at KRAS G12D was over 7.00 each time. In addition, in the data set with Caco-2 cells (Table 3), the Caco-2 result was “+ (a Caco-2 value of 50.5)”.

Consider `Cc1nc2c(F)c(-c3cccc(Cl)c3Cl)c(CCC#N)cc2c2c1cc([C@@H](C)NC(=O)N1CC(F)(F)C1)n2[C@H]1[C@H]2CN[C@@H]1C2` [Example 70, N-((1R)-1-(1-((1R,4R,5S)-2-azabicyclo[2.1.1]hexan-5-yl)-8-(2-cyanoethyl)-7-(2,3-dichlorophenyl)-6-fluoro-4-methyl-1H-pyrrolo[3,2-c]quinolin-2-yl)ethyl)-3,3-difluoroazetidine-1-carboxamide], for which the pIC50 at KRAS G12V mutant and at KRAS G12D was over 7.00 throughout. The Caco-2 entry in the data set with Caco-2 cells (Table 4) is “+++ (a Caco-2 value of >1)”.

Turning to `Cc1cnc(-c2nc3c(F)c(-c4cccc5ccc(F)cc45)c(CCC#N)cc3c3c2cc([C@@H](C)N2CCOCC2=O)n3[C@H]2[C@H]3CN[C@@H]2C3)cn1` [Example 47, 3-(1-((1R,4R,5S)-2-Azabicyclo[2.1.1]hexan-5-yl)-6-fluoro-7-(7-fluoronaphthalen-1-yl)-4-(5-methylpyrazin-2-yl)-2-((R)-1-(3-oxomorpholino)ethyl)-1H-pyrrolo[3,2-c]quinolin-8-yl)propanenitrile], the pIC50 on KRAS G12V mutant and on KRAS G12D was over 7.00 in each case. Also, in the data set on Caco-2 cells (Table 4), the Caco-2 result is “+++ (a Caco-2 value of >1)”.

On to `COC(=O)N[C@H](C)c1cc2c(C)nc3c(F)c(-c4cccc(Cl)c4Cl)c(CCC#N)cc3c2n1[C@H]1[C@H]2CN[C@@H]1C2` [Example 55, Methyl ((1R)-1-(1-((1R,4R,5S)-2-azabicyclo[2.1.1]hexan-5-yl)-8-(2-cyanoethyl)-7-(2,3-dichlorophenyl)-6-fluoro-4-methyl-1H-pyrrolo[3,2-c]quinolin-2-yl)ethyl)carbamate], for which the pIC50 at KRAS G12V mutant and at KRAS G12D was over 7.00 each time. Moreover, in the data set with Caco-2 cells (Table 4), the Caco-2 result is recorded as “+++ (a Caco-2 value of >1)”.

Regarding `Cc1nc2c(F)c(-c3cccc(Cl)c3Cl)c(CCC#N)cc2c2c1cc([C@@H](C)NC(=O)[C@@H]1CCCO1)n2[C@H]1[C@H]2CN[C@@H]1C2` [Example 57, (2S)—N-((1R)-1-(1-((1R,4R,5S)-2-Azabicyclo[2.1.1]hexan-5-yl)-8-(2-cyanoethyl)-7-(2,3-dichlorophenyl)-6-fluoro-4-methyl-1H-pyrrolo[3,2-c]quinolin-2-yl)ethyl)tetrahydrofuran-2-carboxamide], the pIC50 at KRAS G12V mutant and on KRAS G12D was over 7.00 throughout. Also, the Caco-2 entry in the data set on Caco-2 cells (Table 4) is listed as “+++ (a Caco-2 value of >1)”.

As for `Cc1nc2c(F)c(-c3cccc(Cl)c3Cl)c(CCC#N)cc2c2c1cc([C@@H](C)NC(=O)c1cscn1)n2[C@H]1[C@H]2CN[C@@H]1C2` [Example 59, N-((1R)-1-(1-((1R,4R,5S)-2-Azabicyclo[2.1.1]hexan-5-yl)-8-(2-cyanoethyl)-7-(2,3-dichlorophenyl)-6-fluoro-4-methyl-1H-pyrrolo[3,2-c]quinolin-2-yl)ethyl)thiazole-4-carboxamide], the pIC50 at KRAS G12V mutant and on KRAS G12D was over 7.00 throughout. In addition, the Caco-2 entry with Caco-2 cells (Table 4) is listed as “+++ (a Caco-2 value of >1)”.

Consider `COC(=O)N1[C@H](C)CC[C@@H]1c1cc2c(-c3ccc(C(C)(C)O)nc3)nc3c(F)c(-c4cccc(Cl)c4Cl)c(CCC#N)cc3c2n1[C@H]1[C@H]2CN[C@@H]1C2` [Example 52, Methyl (2R,5R)-2-(1-((1R,4R,5S)-2-azabicyclo[2.1.1]hexan-5-yl)-8-(2-cyanoethyl)-7-(2,3-dichlorophenyl)-6-fluoro-4-(6-(2-hydroxypropan-2-yl)pyridin-3-yl)-1H-pyrrolo[3,2-c]quinolin-2-yl)-5-methylpyrrolidine-1-carboxylate], for which the pIC50 on KRAS G12V mutant and at KRAS G12D was over 7.00 each time. In addition, the Caco-2 entry with Caco-2 cells (Table 4) is given as “+++ (a Caco-2 value of >1)”.
